Results published in ChEMBL document CHEMBL1153660, “Synthesis and pharmacological properties of BW315c and other inotropic 2-arylimidazo[1,2-a]pyrazines” (Bioorg Med Chem Lett, 1993).
Active and inactive are the calls of the source. The rule behind the calls is not given here.

Legend:
Cavia porcellus [1] = species: Cavia porcellus; assay: In vitro 50% increase in basal contractile force of paced guinea pig papillary muscle; type: functional, Muscle tissue
Canis familiaris [2] = assay: Time required for inotropic response at 0.80 mg/kg dose; type: functional, Canis lupus familiaris; settings: dose 0.8 mg/kg
Canis familiaris [3] = species: Canis familiaris; assay: 10% increase in heart rate in open chest dogs; type: functional; settings: Canis lupus familiaris
Canis familiaris [4] = species: Canis familiaris; assay: 30% decrease in diastolic blood pressure in open chest dogs; type: functional; settings: Canis lupus familiaris, Artery
[5] = Ratio of ED50 (increased ventricular pressure) to ED30 (diastolic blood pressure); type: functional, Artery
Canis familiaris [6] = assay: Time required for vasodilator response at 0.80 mg/kg dose; type: functional, Canis lupus familiaris; settings: dose 0.8 mg/kg
Phosphodiesterase 3 = Phosphodiesterase 3 (Homo sapiens, UniProt Q14432+Q13370); assay: Concentration of compound required for 50% inhibition of type III cAMP phosphodiesterase from dog ventricles, activity expressed as pIC50; type: protein assay, Canis lupus familiaris
Canis familiaris [7] = assay: In vivo 50% increase in left ventricular pressure in open chest dogs; type: functional; settings: Canis lupus familiaris, Heart left ventricle
Canis familiaris [8] = assay: Time required for vasodilator response at 0.80 mg/kg dose; range 30-45; type: functional, Canis lupus familiaris; settings: dose 0.8 mg/kg
Cavia porcellus [9] = species: Cavia porcellus; assay: In vitro 50% increase in basal contractile force of paced guinea pig papillary muscle (insoluble); type: functional, organism-based; settings: Muscle tissue
Canis familiaris [10] = assay: Time required for inotropic response at 0.80 mg/kg dose; range 30-45; type: functional, Canis lupus familiaris; settings: dose 0.8 mg/kg
Canis familiaris [11] = assay: Time required for inotropic response at 0.80 mg/kg dose; range 45-60; type: functional, Canis lupus familiaris; settings: dose 0.8 mg/kg
Canis familiaris [12] = assay: Time required for vasodilator response at 0.80 mg/kg dose; range 10-30; type: functional, Canis lupus familiaris; settings: dose 0.8 mg/kg
Canis familiaris [13] = assay: Time required for vasodilator response at 0.80 mg/kg dose; range 2-15; type: functional, Canis lupus familiaris; settings: dose 0.8 mg/kg
Cavia porcellus [14] = species: Cavia porcellus; assay: In vitro 50% increase in basal contractile force of paced guinea pig papillary muscle (inactive); type: functional; settings: Muscle tissue
Canis familiaris [15] = assay: Time required for inotropic response at 0.80 mg/kg dose; range 20-30; type: functional, Canis lupus familiaris; settings: dose 0.8 mg/kg
Canis familiaris [16] = assay: Time required for vasodilator response at 0.80 mg/kg dose; range 15-30; type: functional, Canis lupus familiaris; settings: dose 0.8 mg/kg

## COc1cc([S+](C)[O-])ccc1-c1cn2ccnc(OC)c2n1 (stereo unspecified)
Cavia porcellus [1]
  pA50: 4.82
Canis familiaris [2]
  Duration: 60 min
Canis familiaris [3]
  ED10: 0.11 mg/kg
Canis familiaris [4]
  ED30: 1.17 mg/kg
[5]
  Ratio: 0.08
Canis familiaris [6]
  Duration: 2 min
Phosphodiesterase 3
  Log IC50: -4.4
Canis familiaris [7]
  ED50: 0.09 mg/kg

## COc1cc(C(N)=O)ccc1-c1cn2ccncc2n1
Cavia porcellus [1]
  pA50: 4.68
Canis familiaris [2]
  Duration: >30 min
Canis familiaris [3]
  ED10: 0.02 mg/kg
Canis familiaris [4]
  ED30: 0.05 mg/kg
[5]
  Ratio: 0.4
Canis familiaris [6]
  Duration: <5 min
Canis familiaris [7]
  ED50: 0.02 mg/kg

## COc1cc([S+](C)[O-])ccc1-c1nc2c(OC)nccc2[nH]1 (stereo unspecified)
Cavia porcellus [1]
  pA50: 3.91
Canis familiaris [7]
  ED50: 0.13 mg/kg

## COc1cc(C(N)=O)ccc1-c1cn2ccnc(OC)c2n1
Canis familiaris [8]
  Duration: 30 min
Canis familiaris [3]
  ED10: 0.06 mg/kg
Canis familiaris [4]
  ED30: 0.15 mg/kg
[5]
  Ratio: 0.04
Cavia porcellus [9]
  pA50: Insoluble
Canis familiaris [10]
  Duration: 30 min
Canis familiaris [7]
  ED50: 0.06 mg/kg

## COc1cc([S+](C)[O-])ccc1-c1cn2ccncc2n1 (stereo unspecified)
Cavia porcellus [1]
  pA50: 5.39
Canis familiaris [2]
  Duration: 5 min
Canis familiaris [3]
  ED10: 0.28 mg/kg
Canis familiaris [4]
  ED30: 0.03 mg/kg
[5]
  Ratio: 25
Canis familiaris [6]
  Duration: >90 min
Phosphodiesterase 3
  Log IC50: -5
Canis familiaris [7]
  ED50: 0.75 mg/kg

## Cc1[nH]c(=O)c(C#N)cc1-c1ccncc1 [MILRINONE]
Canis familiaris [3]
  ED10: 0.02 mg/kg
Canis familiaris [4]
  ED30: 0.06 mg/kg
[5]
  Ratio: 0.3
Canis familiaris [11]
  Duration: 45 min
Canis familiaris [12]
  Duration: 10 min
Canis familiaris [7]
  ED50: 0.02 mg/kg

## COc1cc(OS(C)(=O)=O)ccc1-c1cn2ccnc(OC)c2n1
Canis familiaris [3]
  ED10: 0.05 mg/kg
Canis familiaris [4]
  ED30: 0.06 mg/kg
[5]
  Ratio: 1.2
Canis familiaris [11]
  Duration: 45 min
Canis familiaris [13]
  Duration: 2 min
Cavia porcellus [9]
  pA50: Insoluble
Canis familiaris [7]
  ED50: 0.07 mg/kg

## COc1cc(OS(C)(=O)=O)ccc1-c1nc2cc[nH]cc-2n1
Cavia porcellus [1]
  pA50: <5
Canis familiaris [7]
  ED50: 0.002 mg/kg

## COc1cc(C(N)=O)ccc1-c1nc2cc[nH]cc-2n1
Cavia porcellus [1]
  pA50: 4.43
Canis familiaris [7]
  ED50: 0.01 mg/kg

## COc1cc(OS(C)(=O)=O)ccc1-c1cn2ccncc2n1
Cavia porcellus [14]
  pA50: inactive

## COc1cc([S+](C)[O-])ccc1-c1cn2cccnc2n1 (stereo unspecified)
Cavia porcellus [1]
  pA50: 4.63
Canis familiaris [7]
  ED50: 2.4 mg/kg

## COc1cc([S+](C)[O-])ccc1-c1nc2cnccc2[nH]1 (stereo unspecified) [ISOMAZOLE]
Cavia porcellus [1]
  pA50: 4.64
Canis familiaris [15]
  Duration: 20 min
Canis familiaris [3]
  ED10: 0.06 mg/kg
Canis familiaris [4]
  ED30: 0.19 mg/kg
[5]
  Ratio: 0.32
Canis familiaris [16]
  Duration: 15 min
Phosphodiesterase 3
  Log IC50: -4.5
Canis familiaris [7]
  ED50: 0.06 mg/kg

## COc1cc([S+](C)[O-])ccc1-c1nc2cccnc2[nH]1 (stereo unspecified) [SULMAZOLE]
Cavia porcellus [1]
  pA50: 4.7
Canis familiaris [2]
  Duration: 30 min
Canis familiaris [3]
  ED10: 0.5 mg/kg
Canis familiaris [4]
  ED30: 1.25 mg/kg
Canis familiaris [6]
  Duration: 30 min
Canis familiaris [7]
  ED50: 0.8 mg/kg
